In publication PMC9669442, “Discovery of novel inhibitors targeting nematode chitinase CeCht1: Virtual screening, biological evaluation, and molecular dynamics simulation” (Frontiers in Chemistry, 2022):

These compounds were tested against T1, CeCht1 (CeCht1-CAD) (Caenorhabditis elegans, UniProt Q11174) (assay: end-point fluorescence assay, 4-methylumbelliferone release). Conditions: not given.
T1 construct: gene cht-1; secreted/overexpressed in Pichia pastoris GS115, purified as in Chen Q. et al. 2021; catalytic residues Asp175, Asp177, Glu179
T1 sequence (Q11174 52-431): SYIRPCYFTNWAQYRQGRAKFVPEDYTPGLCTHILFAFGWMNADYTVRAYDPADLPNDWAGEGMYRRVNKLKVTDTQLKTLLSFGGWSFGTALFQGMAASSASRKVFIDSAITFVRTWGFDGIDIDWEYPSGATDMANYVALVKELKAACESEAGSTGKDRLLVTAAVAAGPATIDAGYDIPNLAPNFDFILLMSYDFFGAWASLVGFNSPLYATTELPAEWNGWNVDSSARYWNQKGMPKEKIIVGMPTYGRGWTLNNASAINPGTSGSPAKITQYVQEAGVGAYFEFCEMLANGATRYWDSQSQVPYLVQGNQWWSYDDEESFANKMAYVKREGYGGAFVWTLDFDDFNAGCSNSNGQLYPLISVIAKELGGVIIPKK
Type: biochemical
Text: end-point fluorescence assay, 4-methylumbelliferone release on CeCht1 (CeCht1-CAD)

In order of rising IC50:
1. CCn1c(=N)c(C(=O)NCCc2ccc(OC)cc2)cc2c(=O)n3cccc(C)c3nc21 [HAU-4, 1-ethyl-3-((4-methoxyphenethyl)carbamoyl)-10-methyl-5-oxo-1,5-dihydro-2H-dipyrido [1,2-a:2′,3′-d] pyrimidin-2-iminium]  4.2 ± 0.5 µM
2. COc1ccc2cc(C(C)NC(=O)Cn3nnnc3CN3CCCC3)ccc2c1 (stereo not shown) [HAU-7]  10 ± 2.6 µM

Same assay, conditions: 4 μM 4-MU-(GlcNAc)2, 10 nM enzyme, 20 mM sodium phosphate pH 6.0, 1% DMSO, 25 °C, 20 min

In order of falling “Inhibition rate at 10 μM (%)” value:
1. COc1ccc(OC)c(-c2nc(C(=O)NCC3CCCO3)cc3c2[nH]c2ccccc23)c1 (stereo not shown) [HAU-9]  39.4 ± 3.3%
2. CCOc1cccc(CNC2CC(C)(C)Cc3c2cnn3-c2ccc(C)cc2)c1O (stereo not shown) [HAU-11]  34.9 ± 1.6%
3. Cc1ccc(OCc2cc(=O)n3c4c(sc3n2)CCCC4)c(NC(=O)CC(C)C)c1 [HAU-1]  30.4 ± 2.5%
4. CCOc1ccc2ccccc2c1/C=N/NC(=O)CNC(=O)c1ccc2c(c1)OCCO2 [HAU-15]  2.0 ± 0.8%
5. Cc1ccc2nc(SCc3noc(CCC(=O)Nc4ccc(C)c(C)c4)n3)[nH]c2c1 [HAU-3]  0.4 ± 0.2%
